Patent US20260007684A1, “AMIDE DERIVATIVES FOR INHIBITING NLRP3 AND USES THEREOF” (Ventus Therapeutics U.S., Inc., priority 2023, published 2026)
pIC50: −log10 of the molar value.

Legend:
human NLRP3 [1] = molecular target: T1, human NLRP3 (Homo sapiens (Human), UniProt Q96P20); experiment: Scintillation Proximity (SPA) NLRP3 Assay: displacement of 3H-MCC950; assay type: binding; settings: read-out: SPA IC50
human NLRP3 [2] = molecular target: T1, human NLRP3; experiment: Human PBMC NLRP3 Assay (LPS priming, ATP stimulation, cytokine measurement); assay type: cell-based
human NLRP3 [3] = molecular target: T1, human NLRP3; experiment: Human Whole Blood (hWB) NLRP3 Assay (LPS/ATP, IL-1β); assay type: cell-based
[4] = human PBMC, LPS priming, ATP stimulation, read-out: PBMC IC50
[5] = human whole blood, LPS/ATP, IL-1β, read-out: hWB IC50
[6] = PBMC IC50, human PBMC, LPS priming, ATP stimulation
[7] = hWB IC50, human whole blood, LPS/ATP, IL-1β

T1 sequence (Q96P20 whole entry): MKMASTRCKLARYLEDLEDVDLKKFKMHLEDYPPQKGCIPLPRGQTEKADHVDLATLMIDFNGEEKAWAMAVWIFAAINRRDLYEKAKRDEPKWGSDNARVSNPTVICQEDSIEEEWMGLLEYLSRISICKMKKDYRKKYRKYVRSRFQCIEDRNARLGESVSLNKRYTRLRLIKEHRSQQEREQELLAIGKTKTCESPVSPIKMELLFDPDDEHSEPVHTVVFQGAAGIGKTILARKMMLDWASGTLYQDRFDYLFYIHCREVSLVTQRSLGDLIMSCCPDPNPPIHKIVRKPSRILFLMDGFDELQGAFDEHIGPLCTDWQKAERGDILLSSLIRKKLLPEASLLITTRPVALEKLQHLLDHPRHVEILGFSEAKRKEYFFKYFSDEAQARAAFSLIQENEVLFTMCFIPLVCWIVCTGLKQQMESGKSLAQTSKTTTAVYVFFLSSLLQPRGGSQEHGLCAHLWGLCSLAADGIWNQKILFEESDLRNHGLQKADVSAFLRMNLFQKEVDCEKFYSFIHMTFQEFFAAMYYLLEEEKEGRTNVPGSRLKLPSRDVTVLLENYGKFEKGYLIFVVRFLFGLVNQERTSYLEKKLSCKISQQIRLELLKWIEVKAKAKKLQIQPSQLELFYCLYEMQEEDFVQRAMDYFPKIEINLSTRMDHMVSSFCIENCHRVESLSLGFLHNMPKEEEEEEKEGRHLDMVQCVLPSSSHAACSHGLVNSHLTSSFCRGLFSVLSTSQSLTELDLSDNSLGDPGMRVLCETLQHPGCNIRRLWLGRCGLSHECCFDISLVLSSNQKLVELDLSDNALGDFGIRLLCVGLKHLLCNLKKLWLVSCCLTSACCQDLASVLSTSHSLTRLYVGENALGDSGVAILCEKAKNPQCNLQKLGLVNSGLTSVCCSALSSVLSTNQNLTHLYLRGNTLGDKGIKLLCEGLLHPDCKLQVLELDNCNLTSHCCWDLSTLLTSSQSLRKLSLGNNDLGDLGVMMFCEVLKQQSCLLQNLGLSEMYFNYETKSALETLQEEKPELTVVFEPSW

pIC50 (human NLRP3 [1]; displacement of 3H-MCC950)	pIC50 (human NLRP3 [2]; [4])	pIC50 (human NLRP3 [3]; [5])	pIC50 (human NLRP3 [1])	pIC50 (human NLRP3 [2]; read-out: PBMC IC50)	pIC50 (human NLRP3 [3]; read-out: hWB IC50)	SMILES	pIC50 (human NLRP3 [2]; [6])	pIC50 (human NLRP3 [3]; [7])
> 6.00	7.00 to 8.00	> 6.00	–	–	–	C[C@@H]1CCN(c2nnn[nH]2)C[C@@H](NC(=O)C2(c3ccc(Cl)cc3O)CC2)C1 (single isomer, unassigned) [60B*]	–	–
> 6.00	7.00 to 8.00	5.52 to 5.70	–	–	–	C[C@@H]1CCN(c2nnn[nH]2)C[C@H](NC(=O)C2(c3cnc(Cl)cc3O)CC2)C1 (single isomer, unassigned) [99A*]	–	–
> 6.00	7.00 to 8.00	> 6.00	7.01	7.77	6.64	C[C@H]1C[C@@H](NC(=O)C2(c3ccc(OC(F)(F)F)cc3O)CC2)CN(c2nnn[nH]2)C1 [Compound 17A, 1-(2-hydroxy-4-(trifluoromethoxy)phenyl)-N-((3R,5S)-5-methyl-1-(1H-tetrazol-5-yl)piperidin-3-yl)cyclopropane-1-carboxamide]	–	–
> 6.00	> 8.00	> 6.00	–	–	–	CC(C)c1ccc(C2(C(=O)N[C@@H]3C[C@H](C)CCN(c4nnn[nH]4)C3)CC2)c(O)c1 (single isomer, unassigned) [27A*, 1-(2-hydroxy-4-isopropylphenyl)-N-(5-methyl-1-(1H-tetrazol-5-yl)azepan-3-yl)cyclopropane-1-carboxamide]	–	–
> 6.00	> 8.00	> 6.00	–	–	–	C[C@@H]1CCN(c2nnn[nH]2)C[C@H](NC(=O)C2(c3ccc(OC(F)(F)F)cc3O)CC2)C1 (single isomer, unassigned) [62A*]	–	–
> 6.00	> 8.00	< 5.52	–	–	–	C[C@@H]1CCN(c2nnn[nH]2)C[C@H](NC(=O)C2(c3c(F)cc(Cl)cc3F)CC2)C1 (single isomer, unassigned) [72A*]	–	–
> 6.00	7.00 to 8.00	< 5.52	–	–	–	Cc1cc(Cl)cc(O)c1C1(C(=O)N[C@@H]2C[C@H](C)CN(c3nnn[nH]3)C2)CC1 [Compound 33A, 1-(4-chloro-2-hydroxy-6-methylphenyl)-N-((3R,5S)-5-methyl-1-(1H-tetrazol-5-yl)piperidin-3-yl)cyclopropane-1-carboxamide]	–	–
> 6.00	7.00 to 8.00	< 5.52	–	–	–	C[C@H]1C[C@@H](NC(=O)C2(c3c(O)cc(C4CC4)cc3OC(F)(F)F)CC2)CN(c2nnn[nH]2)C1 (single isomer, unassigned) [95A*]	–	–
> 6.00	7.00 to 8.00	> 6.00	–	–	–	C[C@@H]1CCN(c2nnn[nH]2)C[C@H](NC(=O)C2(c3ccc(OC(F)(F)F)cc3F)CC2)C1 (single isomer, unassigned) [64A*]	–	–
> 6.00	7.00 to 8.00	< 5.52	–	–	–	C[C@@H]1CCN(c2nnn[nH]2)C[C@H](NC(=O)C2(c3ccc(OC(F)(F)F)c(F)c3O)CC2)C1 (single isomer, unassigned) [28A*, 1-(3-fluoro-2-hydroxy-4-(trifluoromethoxy)phenyl)-N-(5-methyl-1-(1H-tetrazol-5-yl)azepan-3-yl)cyclopropane-1-carboxamide]	–	–
> 6.00	> 8.00	5.52 to 5.70	–	–	–	C[C@@H]1CCN(c2nnn[nH]2)C[C@H](NC(=O)C2(c3ccc(C(F)(F)F)c(F)c3O)CC2)C1 (single isomer, unassigned) [31A*, 1-(3-fluoro-2-hydroxy-4-(trifluoromethyl)phenyl)-N-(5-methyl-1-(1H-tetrazol-5-yl)azepan-3-yl)cyclopropane-1-carboxamide]	–	–
> 6.00	7.00 to 8.00	5.70 to 6.00	–	–	–	C[C@@H]1CCN(c2nnn[nH]2)C[C@H](NC(=O)C2(c3ccc(OC(F)(F)F)cc3)CC2)C1 (single isomer, unassigned) [57A*]	–	–
> 6.00	7.00 to 8.00	5.70 to 6.00	–	–	–	O=C(N[C@@H]1CCCCCN(c2nnn[nH]2)C1)C1(c2ccc(Cl)cc2)CC1 (single isomer, unassigned) [14A*, N-(1-(1H-tetrazol-5-yl)azocan-3-yl)-1-(4-chlorophenyl)cyclopropane-1-carboxamide]	–	–
> 6.00	7.00 to 8.00	5.70 to 6.00	–	–	–	C[C@@H]1CCN(c2nnn[nH]2)C[C@H](NC(=O)C2(c3cc(F)c(Cl)cc3O)CC2)C1 (single isomer, unassigned) [29A*, 1-(4-chloro-5-fluoro-2-hydroxyphenyl)-N-(5-methyl-1-(1H-tetrazol-5-yl)azepan-3-yl)cyclopropane-1-carboxamide]	–	–
> 6.00	> 8.00	> 6.00	–	–	–	Cc1ccc(C2(C(=O)N[C@@H]3C[C@H](C)CCN(c4nnn[nH]4)C3)CC2)c(O)c1 (single isomer, unassigned) [67A*]	–	–
> 6.00	> 8.00	> 6.00	–	–	–	C[C@@H]1CCN(c2nnn[nH]2)C[C@H](NC(=O)C2(c3ccc(C(F)(F)F)cc3O)CC2)C1 (single isomer, unassigned) [63A*]	–	–
> 6.00	7.00 to 8.00	> 6.00	–	–	–	Cc1ccc(C2(C(=O)N[C@@H]3C[C@H](C)CN(c4nnn[nH]4)C3)CC2)c(O)c1 [Compound 20A, 1-(2-hydroxy-4-methylphenyl)-N-((3R,5S)-5-methyl-1-(1H-tetrazol-5-yl)piperidin-3-yl)cyclopropane-1-carboxamide]	–	–
> 6.00	7.00 to 8.00	< 5.52	–	–	–	C[C@H]1C[C@@H](NC(=O)C2(c3ccc(C4CC4(F)F)cc3O)CC2)CN(c2nnn[nH]2)C1 (single isomer, unassigned) [94A*]	–	–
> 6.00	7.00 to 8.00	> 6.00	–	–	–	C[C@@H]1CCN(c2nnn[nH]2)C[C@@H](NC(=O)C2(c3ccc(C(F)(F)F)cc3O)CC2)C1 (single isomer, unassigned) [63B*]	–	–
> 6.00	> 8.00	> 6.00	–	–	–	C[C@@H]1CCN(c2nnn[nH]2)C[C@H](NC(=O)C2(c3ccc(Br)cc3)CC2)C1 (single isomer, unassigned) [59A*]	–	–
> 6.00	> 8.00	> 6.00	–	–	–	Cc1c(Cl)ccc(C2(C(=O)N[C@@H]3C[C@H](C)CCN(c4nnn[nH]4)C3)CC2)c1O (single isomer, unassigned) [21A*, 1-(4-chloro-2-hydroxy-3-methylphenyl)-N-(5-methyl-1-(1H-tetrazol-5-yl)azepan-3-yl)cyclopropane-1-carboxamide]	–	–

SMILES	pIC50 (human NLRP3 [1]; displacement of 3H-MCC950)	pIC50 (human NLRP3 [2]; [4])	pIC50 (human NLRP3 [3]; [5])	pIC50 (human NLRP3 [1])	pIC50 (human NLRP3 [2]; read-out: PBMC IC50)	pIC50 (human NLRP3 [3]; read-out: hWB IC50)	pIC50 (human NLRP3 [2]; [6])	pIC50 (human NLRP3 [3]; [7])
C[C@H]1CC[C@H](NC(=O)C2(c3ccc(C(F)(F)F)cc3O)CC2)CN(c2nnn[nH]2)C1 [89B*, 1-(2-hydroxy-4-(trifluoromethyl)phenyl)-N-((3S,6S)-6-methyl-1-(1H-tetrazol-5-yl)azepan-3-yl)cyclopropane-1-carboxamide]	> 6.00	7.00 to 8.00	< 5.52	–	–	–	–	–
C[C@@H]1C[C@@H](NC(=O)C2(c3ccc(SC(F)F)cc3)CC2)[C@H]2CC[C@@H]1N2c1nnn[nH]1 [85A*, 1-(4-((difluoromethyl)thio)phenyl)-N-((1R,2R,4R,5S)-4-methyl-8-(1H-tetrazol-5-yl)-8-azabicyclo[3.2.1]octan-2-yl)cyclopropane-1-carboxamide]	> 6.00	–	–	–	–	–	> 8.00	> 6.00
C[C@H]1CC[C@@H](NC(=O)C2(c3ccc(C(F)(F)F)cc3O)CC2)CN(c2nnn[nH]2)C1 [89A*, 1-(2-hydroxy-4-(trifluoromethyl)phenyl)-N-((3R,6S)-6-methyl-1-(1H-tetrazol-5-yl)azepan-3-yl)cyclopropane-1-carboxamide]	> 6.00	> 8.00	5.52 to 5.70	–	–	–	–	–
C[C@@H]1C[C@@H](NC(=O)C2(c3ccc(C(F)F)cc3)CC2)[C@H]2CC[C@@H]1N2c1nnn[nH]1 [86A*, 1-(4-(difluoromethyl)phenyl)-N-((1R,2R,4R,5S)-4-methy1-8-(1H-tetrazol-5-yl)-8-azabicyclo[3.2.1]octan-2-yl)cyclopropane-1-carboxamide]	> 6.00	–	–	–	–	–	7.00 to 8.00	> 6.00
O=C(N[C@@H]1CCC[C@@H]2CC[C@H]1N2c1nnn[nH]1)C1(c2ccc(C3CC3)cc2O)CC1 [93A*, N-((1R,2R,6R)-9-(1H-tetrazol-5-yl)-9-azabicyclo[4.2.1]nonan-2-yl)-1-(4-cyclopropyl-2-hydroxyphenyl)cyclopropane-1-carboxamide]	> 6.00	–	–	–	–	–	7.00 to 8.00	5.52 to 5.70
C[C@@H]1C[C@@H](NC(=O)C2(c3ccc(C4CC4)c(F)c3O)CC2)[C@H]2CC[C@@H]1N2c1nnn[nH]1 [83A*, 1-(4-cyclopropy1-3-fluoro-2-hydroxyphenyl)-N-((1R,2R,4R,5S)-4-methy1-8-(1H-tetrazol-5-yl)-8-azabicyclo[3.2.1]octan-2-yl)cyclopropane-1-carboxamide]	> 6.00	–	–	–	–	–	> 8.00	> 6.00
O=C(N[C@@H]1CC[C@H]2CC[C@@H]1N2c1nnn[nH]1)C1(c2ccc(Cl)cc2O)CC1 [75C*, N-((1S,2R,5S)-8-(1H-tetrazol-5-yl)-8-azabicyclo[3.2.1]octan-2-yl)-1-(4-chloro-2-hydroxyphenyl)cyclopropane-1-carboxamide]	> 6.00	–	5.70 to 6.00	–	–	–	7.00 to 8.00	–
C[C@@H]1C[C@@H](NC(=O)C2(c3ccc(OC(F)(F)F)cc3)CC2)[C@H]2CC[C@@H]1N2c1nnn[nH]1 [82A*, N-((1R,2R,4R,5S)-4-methy1-8-(1H-tetrazol-5-yl)-8-azabicyclo[3.2.1]octan-2-yl)-1-(4-(trifluoromethoxy)phenyl)cyclopropane-1-carboxamide]	> 6.00	–	–	–	–	–	> 8.00	> 6.00
O=C(N[C@@H]1CCC[C@@H]2CC[C@H]1N2c1nnn[nH]1)C1(c2ccc(C(F)(F)F)cc2O)CC1 [88A*, N-((1R,2R,6R)-9-(1H-tetrazol-5-yl)-9-azabicyclo[4.2.1]nonan-2-yl)-1-(2-hydroxy-4-(trifluoromethyl)phenyl)cyclopropane-1-carboxamide]	> 6.00	–	–	–	–	–	> 8.00	> 6.00
